According to ChEMBL document CHEMBL3872214, “Synthesis and evaluation of in vivo antioxidant, in vitro antibacterial, MRSA and antifungal activity of novel substituted isatin N-(2,3,4,6-tetra-O-acetyl-β-d-glucopyranosyl)thiosemicarbazones” (Eur J Med Chem, 2016):
Converted amounts (≈) assume the structure as drawn.

Key:
Type in all cases: functional
Bacillus subtilis = experiment: Antibacterial activity against Bacillus subtilis ATCC 11774 after 18 to 20 hrs by two-fold microbroth dilution method
Staphylococcus aureus [1] = experiment: Antibacterial activity against Staphylococcus aureus ATCC 11632 after 18 to 20 hrs by two-fold microbroth dilution method
[2] = system: Staphylococcus epidermidis; experiment: Antibacterial activity against Staphylococcus epidermidis ATCC 12228 after 18 to 20 hrs by two-fold microbroth dilution method
Klebsiella aerogenes = experiment: Antibacterial activity against Enterobacter aerogenes ATCC 13048 after 18 to 20 hrs by two-fold microbroth dilution method
Escherichia coli = experiment: Antibacterial activity against Escherichia coli ATCC 25922 after 18 to 20 hrs by two-fold microbroth dilution method
Klebsiella pneumoniae = experiment: Antibacterial activity against Klebsiella pneumoniae ATCC 4352 after 18 to 20 hrs by two-fold microbroth dilution method
Pseudomonas aeruginosa = experiment: Antibacterial activity against Pseudomonas aeruginosa […] after 18 to 20 hrs by two-fold microbroth dilution method
Staphylococcus aureus [3] = experiment: Antibacterial activity against methicillin-resistant Staphylococcus aureus 198-1 after 18 to 20 hrs by two-fold microbroth dilution method
Staphylococcus aureus [4] = experiment: Antibacterial activity against methicillin-resistant Staphylococcus aureus 198-2 after 18 to 20 hrs by two-fold microbroth dilution method
Staphylococcus aureus [5] = experiment: Antibacterial activity against methicillin-resistant Staphylococcus aureus 198-3 after 18 to 20 hrs by two-fold microbroth dilution method
Aspergillus niger = experiment: Antifungal activity against Aspergillus niger 439 after 72 hrs by agar dilution method; conditions: Aspergillus niger, 439, 72 h
Candida albicans = experiment: Antifungal activity against Candida albicans ATCC 7754 after 72 hrs by agar dilution method; conditions: ATCC 7754, 72 h
[6] = Antifungal activity against Fusarium oxysporum M42 after 72 hrs by agar dilution method
[7] = Antifungal activity against Saccharomyces cerevisiae SH20 after 72 hrs by agar dilution method
Rattus norvegicus [8] = experiment: Antioxidant activity in CCL4-intoxicated Wistar albino rat assessed as liver cytosolic superoxide dismutase activity per mg protein at 100 mg/kg, ip administered for 7 consecutive days after DL-alpha-tocopherol acetate treatment followed by CCL4 dosing measured after 24 hrs by xanthine based assay (reference value: 5.27 +/- 0.22 U)
Rattus norvegicus [9] = experiment: Antioxidant activity in CCL4-intoxicated Wistar albino rat assessed as liver cytosolic glutathione peroxidase activity per mg protein at 100 mg/kg, ip administered for 7 consecutive days after DL-alpha-tocopherol acetate treatment followed by CCL4 dosing measured after 24 hrs by H2O2 based spectrophotometric analysis (reference value: 0.28 +/- 0.01 U)
Rattus norvegicus [10] = experiment: Antioxidant activity in CCL4-intoxicated Wistar albino rat assessed as liver cytosolic catalase activity per mg protein at 100 mg/kg, ip administered for 7 consecutive days after DL-alpha-tocopherol acetate treatment followed by CCL4 dosing measured after 24 hrs by H2O2 based assay (reference value: 220.15 +/- 11.43 U)

| SMILES | MIC (Bacillus subtilis) [µM] | MIC (Staphylococcus aureus [1]) [µM] | MIC [2] [µM] | MIC (Klebsiella aerogenes) [µM] | MIC (Escherichia coli) [µM] | MIC (Klebsiella pneumoniae) [µM] | MIC (Pseudomonas aeruginosa) [µM] | MIC (Staphylococcus aureus [3]) [µM] | MIC (Staphylococcus aureus [4]) [µM] | MIC (Staphylococcus aureus [5]) [µM] | MIC (Aspergillus niger) [µM] | MIC (Candida albicans) [µM] | MIC [6] [µM] | MIC [7] [µM] | Activity (Rattus norvegicus [8]) [U] | Activity (Rattus norvegicus [9]) [U] | Activity (Rattus norvegicus [10]) [U] |
| --- | --- | --- | --- | --- | --- | --- | --- | --- | --- | --- | --- | --- | --- | --- | --- | --- | --- |
| CC(=O)OC[C@H]1O[C@@H](NC(=S)N/N=C2/C(=O)Nc3c2cc(Br)cc3[N+](=O)[O-])[C@H](OC(C)=O)[C@@H](OC(C)=O)[C@@H]1OC(C)=O | 3.12 (≈ 2.1 µg/mL) | 6.25 (≈ 4.22 µg/mL) | 6.25 (≈ 4.22 µg/mL) | 25 (≈ 16.9 µg/mL) | 25 (≈ 16.9 µg/mL) | 25 (≈ 16.9 µg/mL) | 25 (≈ 16.9 µg/mL) | 6.25 (≈ 4.22 µg/mL) | 6.25 (≈ 4.22 µg/mL) | 6.25 (≈ 4.22 µg/mL) | 12.5 (≈ 8.43 µg/mL) | 12.5 (≈ 8.43 µg/mL) | 6.25 (≈ 4.22 µg/mL) | 12.5 (≈ 8.43 µg/mL) | 10.76 | 0.37 | 381.67 |
| CCN1C(=O)/C(=N/NC(=S)N[C@@H]2O[C@H](COC(C)=O)[C@@H](OC(C)=O)[C@H](OC(C)=O)[C@H]2OC(C)=O)c2ccccc21 | 100 (≈ 57.9 µg/mL) | 100 (≈ 57.9 µg/mL) | 100 (≈ 57.9 µg/mL) | 12.5 (≈ 7.23 µg/mL) | 12.5 (≈ 7.23 µg/mL) | 12.5 (≈ 7.23 µg/mL) | 12.5 (≈ 7.23 µg/mL) | 100 (≈ 57.9 µg/mL) | 100 (≈ 57.9 µg/mL) | 100 (≈ 57.9 µg/mL) | 25 (≈ 14.5 µg/mL) | 400 (≈ 231 µg/mL) | 200 (≈ 116 µg/mL) | 400 (≈ 231 µg/mL) | 9.68 | 0.75 | 358.47 |
| CC(=O)OC[C@H]1O[C@@H](NC(=S)N/N=C2/C(=O)Nc3c(C)cccc32)[C@H](OC(C)=O)[C@@H](OC(C)=O)[C@@H]1OC(C)=O | 25 (≈ 14.1 µg/mL) | 12.5 (≈ 7.06 µg/mL) | 12.5 (≈ 7.06 µg/mL) | 25 (≈ 14.1 µg/mL) | 25 (≈ 14.1 µg/mL) | 25 (≈ 14.1 µg/mL) | 25 (≈ 14.1 µg/mL) | 12.5 (≈ 7.06 µg/mL) | 12.5 (≈ 7.06 µg/mL) | 12.5 (≈ 7.06 µg/mL) | 100 (≈ 56.5 µg/mL) | 100 (≈ 56.5 µg/mL) | 25 (≈ 14.1 µg/mL) | 25 (≈ 14.1 µg/mL) | 4.6 | 1.69 | 250.63 |
| CC(=O)OC[C@H]1O[C@@H](NC(=S)N/N=C2/C(=O)Nc3ccc([N+](=O)[O-])cc32)[C@H](OC(C)=O)[C@@H](OC(C)=O)[C@@H]1OC(C)=O | 100 (≈ 59.6 µg/mL) | 200 (≈ 119 µg/mL) | 100 (≈ 59.6 µg/mL) | 50 (≈ 29.8 µg/mL) | 50 (≈ 29.8 µg/mL) | 50 (≈ 29.8 µg/mL) | 50 (≈ 29.8 µg/mL) | 200 (≈ 119 µg/mL) | 200 (≈ 119 µg/mL) | 200 (≈ 119 µg/mL) | 100 (≈ 59.6 µg/mL) | 100 (≈ 59.6 µg/mL) | 100 (≈ 59.6 µg/mL) | 100 (≈ 59.6 µg/mL) | 6.45 | 1.89 | 283.53 |
| CC(=O)OC[C@H]1O[C@@H](NC(=S)N/N=C2/C(=O)Nc3c2cc(Cl)cc3[N+](=O)[O-])[C@H](OC(C)=O)[C@@H](OC(C)=O)[C@@H]1OC(C)=O | 3.12 (≈ 1.97 µg/mL) | 6.25 (≈ 3.94 µg/mL) | 6.25 (≈ 3.94 µg/mL) | 25 (≈ 15.7 µg/mL) | 25 (≈ 15.7 µg/mL) | 25 (≈ 15.7 µg/mL) | 25 (≈ 15.7 µg/mL) | 6.25 (≈ 3.94 µg/mL) | 6.25 (≈ 3.94 µg/mL) | 6.25 (≈ 3.94 µg/mL) | 12.5 (≈ 7.87 µg/mL) | 6.25 (≈ 3.94 µg/mL) | 25 (≈ 15.7 µg/mL) | 25 (≈ 15.7 µg/mL) | 10.57 | 0.35 | 389.53 |
| CC(=O)OC[C@H]1O[C@@H](NC(=S)N/N=C2/C(=O)Nc3ccc(I)cc32)[C@H](OC(C)=O)[C@@H](OC(C)=O)[C@@H]1OC(C)=O | 6.25 (≈ 4.23 µg/mL) | 6.25 (≈ 4.23 µg/mL) | 6.25 (≈ 4.23 µg/mL) | 50 (≈ 33.8 µg/mL) | 50 (≈ 33.8 µg/mL) | 25 (≈ 16.9 µg/mL) | 25 (≈ 16.9 µg/mL) | 6.25 (≈ 4.23 µg/mL) | 6.25 (≈ 4.23 µg/mL) | 6.25 (≈ 4.23 µg/mL) | 6.25 (≈ 4.23 µg/mL) | 6.25 (≈ 4.23 µg/mL) | 12.5 (≈ 8.46 µg/mL) | 6.25 (≈ 4.23 µg/mL) | 10.85 | 0.35 | 399.75 |
| C=CCN1C(=O)/C(=N/NC(=S)N[C@@H]2O[C@H](COC(C)=O)[C@@H](OC(C)=O)[C@H](OC(C)=O)[C@H]2OC(C)=O)c2ccccc21 | 200 (≈ 118 µg/mL) | 200 (≈ 118 µg/mL) | 200 (≈ 118 µg/mL) | 100 (≈ 59.1 µg/mL) | 100 (≈ 59.1 µg/mL) | 100 (≈ 59.1 µg/mL) | 100 (≈ 59.1 µg/mL) | 200 (≈ 118 µg/mL) | 200 (≈ 118 µg/mL) | 200 (≈ 118 µg/mL) | 200 (≈ 118 µg/mL) | 100 (≈ 59.1 µg/mL) | 200 (≈ 118 µg/mL) | 100 (≈ 59.1 µg/mL) | 9.91 | 0.27 | 357.47 |
| CC(=O)OC[C@H]1O[C@@H](NC(=S)N/N=C2/C(=O)N(Cc3ccccc3)c3ccccc32)[C@H](OC(C)=O)[C@@H](OC(C)=O)[C@@H]1OC(C)=O | 200 (≈ 128 µg/mL) | 200 (≈ 128 µg/mL) | 200 (≈ 128 µg/mL) | 100 (≈ 64.1 µg/mL) | 100 (≈ 64.1 µg/mL) | 100 (≈ 64.1 µg/mL) | 100 (≈ 64.1 µg/mL) | 200 (≈ 128 µg/mL) | 200 (≈ 128 µg/mL) | 200 (≈ 128 µg/mL) | 100 (≈ 64.1 µg/mL) | 400 (≈ 256 µg/mL) | 100 (≈ 64.1 µg/mL) | 400 (≈ 256 µg/mL) | 8.6 | 1.69 | 250.63 |
| CCCCN1C(=O)/C(=N/NC(=S)N[C@@H]2O[C@H](COC(C)=O)[C@@H](OC(C)=O)[C@H](OC(C)=O)[C@H]2OC(C)=O)c2ccccc21 | 100 (≈ 60.7 µg/mL) | 100 (≈ 60.7 µg/mL) | 100 (≈ 60.7 µg/mL) | 12.5 (≈ 7.58 µg/mL) | 12.5 (≈ 7.58 µg/mL) | 12.5 (≈ 7.58 µg/mL) | 12.5 (≈ 7.58 µg/mL) | 100 (≈ 60.7 µg/mL) | 100 (≈ 60.7 µg/mL) | 100 (≈ 60.7 µg/mL) | 100 (≈ 60.7 µg/mL) | 100 (≈ 60.7 µg/mL) | 100 (≈ 60.7 µg/mL) | 100 (≈ 60.7 µg/mL) | 9.89 | 0.93 | 377.61 |
| CC(=O)OC[C@H]1O[C@@H](NC(=S)N/N=C2/C(=O)Nc3ccc(C)cc32)[C@H](OC(C)=O)[C@@H](OC(C)=O)[C@@H]1OC(C)=O | 25 (≈ 14.1 µg/mL) | 12.5 (≈ 7.06 µg/mL) | 12.5 (≈ 7.06 µg/mL) | 25 (≈ 14.1 µg/mL) | 25 (≈ 14.1 µg/mL) | 25 (≈ 14.1 µg/mL) | 25 (≈ 14.1 µg/mL) | 12.5 (≈ 7.06 µg/mL) | 12.5 (≈ 7.06 µg/mL) | 12.5 (≈ 7.06 µg/mL) | 100 (≈ 56.5 µg/mL) | 100 (≈ 56.5 µg/mL) | 100 (≈ 56.5 µg/mL) | 25 (≈ 14.1 µg/mL) | 5.91 | 1.7 | 258.47 |
